Target: T1, human KSP motor domain (Uniprot P52732, residues 1-387) (Homo sapiens, UniProt P52732)
T1 construct: human KSP motor domain (Uniprot P52732, residues 1-387); His6; made in house; host or cells: E. coli BL21 Star (DE3)
T1 sequence (P52732 1-387): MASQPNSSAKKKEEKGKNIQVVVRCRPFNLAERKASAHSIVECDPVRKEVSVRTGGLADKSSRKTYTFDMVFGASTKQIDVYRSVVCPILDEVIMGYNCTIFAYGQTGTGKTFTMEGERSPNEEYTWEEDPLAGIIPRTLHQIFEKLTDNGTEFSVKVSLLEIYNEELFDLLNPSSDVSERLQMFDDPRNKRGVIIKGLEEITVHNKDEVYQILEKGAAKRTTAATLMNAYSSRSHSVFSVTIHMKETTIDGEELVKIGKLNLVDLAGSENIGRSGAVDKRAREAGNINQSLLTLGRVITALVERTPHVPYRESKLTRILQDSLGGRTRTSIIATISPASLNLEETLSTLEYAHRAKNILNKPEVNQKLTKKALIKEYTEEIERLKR
Test: Inhibitory activity against kinesin spindle protein (microtubule-stimulated ATPase, quinaldine red Pi detection, absorbance at 525 nm)
Assay type: biochemical
Conditions: 30 nM kinesin spindle protein, 1 mM ATP, 37° C., 20 min
Procedure: Each of the compounds represented by Structural Formulas (1) to (4) was measured for inhibitory activity against a kinesin spindle protein by the following method referring to the methods described in Elizabeth B. Cogan et al., Analytical Biochemistry, 1999, 271, pp. 29-35 and Keith W. Rickert et al., Archives of Biochemistry and Biophysics, 2008, 469, pp. 220-231.
The human KSP motor domain (Uniprot P52732, residues 1-387) was cloned into the pRSETa vector (product of Invitrogen Co., Ltd) and expressed in E. coli BL21 Star (DE3) (product of Invitrogen Co., Ltd) with His6 tag for purification.
Each of the compounds represented by Structural Formulas (1) to (4) was prepared in 100% by mass DMSO (dimethylsulfoxide) at 100-fold concentration (100×). Then, the resulting mixture was diluted with 1.00% by mass DMSO to each of 0.001 mM, 0.003 mM, 0.01 mM, 0.03 mM, 0.1 mM, 0.3 mM, 1 mM, 3 mM, 10 mM and 30 mM.
A reaction mixture having a formulation described in the following Table 1 was prepared. Specifically, 28.5 μL of water, 1 μL ([…]) of the above-purified kinesin spindle protein, 5 μL of a 10× reaction buffer (150 mM PIPES (1,4-piperazine ethanesulfonic acid) (pH 7.0), 10 mM magnesium chloride, 10 mM EGTA (glycol ether diamine tetraacetate)), 10 μL of 5× microtubules solution (330 μg/mL microtubules, 15 mM PIPES (pH 7.0), 1 mM magnesium chloride, 10 μM Taxol) and 0.5 μL of the above-prepared 100× compound (the compound represented by Structural Formula (1), (2), (3) or (4)) were mixed together to prepare 45 μL of a reaction mixture, which was incubated at 37° C. for 10 min. Then, 5 μL of a 100×ATP solution (10 mM ATP, 10 mM PIPES (pH 7.0)) was added to the reaction mixture to initiate the reaction. Immediately after that, the reaction mixture was incubated at 37° C. for 20 min. […]
After the reaction, 150 μL of Quench C buffer (the formulation of which is given below) was added the reaction mixture to terminate the reaction, followed by incubating at room temperature for 5 min. Then, the reaction mixture was measured for absorbance at 525 nm with a microplate reader (SpectraMax, product of Molecular Devices Co., Ltd.). […]
The kinesin spindle protein decomposes ATP into ADP and Pi (phosphoric acid). […] Thus, the amount of the formed Pi can be measured by measuring the absorbance at 525 nm. With the absorbance at 525 nm of the high control (the amount of the formed Pi) being 100, comparing the absorbance of the high control with absorbance of test groups to which the above compounds have been added can determine whether the activity of the kinesin spindle protein is inhibited.
That is, the inhibitory rate of the activity of the kinesin spindle protein can be calculated from the following calculation formula. […]

CCN(CC)C(=O)CN(Cc1ccccc1)c1ccc2c(c1F)C=CC2(C)C [Structural Formula (1)]
Inhibitory rate (%) (compound concentration 10 μM): 44.5%

CCN(CC)C(=O)CN(Cc1ccccc1)c1ccc2c(c1F)CCC2=O [Structural Formula (2), 2-(benzyl(4-fluoro-1-oxo-2,3-dihydro-1H-inden-5-yl)amino)-N,N-diethylacetamide]
Inhibitory rate (%) (compound concentration 88 μM): 50%

CCN(CC)C(=O)CN(Cc1ccccc1)c1ccc2c(c1)C=CC2C (stereo not shown) [Structural Formula (3)]
Inhibitory rate (%) (compound concentration 39 μM): 50%

CC1C=Cc2cc(N(CC(=O)N(C)C)Cc3ccccc3)ccc21 (stereo not shown) [Structural Formula (4)]
Inhibitory rate (%) (compound concentration 100 μM): 79.8%

Source: patent US9242928B2, “Compound, kinesin spindle protein inhibitor, and application thereof” (FUJITSU LIMITED, priority 2010, dated 2016)
